Reference: US20090093460A1, “Compositions” (AstraZeneca AB, priority 2003, published 2009)

Test: Oral bioavailability in Sprague-Dawley rats
Format: in vivo
Conditions: rat, plasma, 30 μmol/kg
Procedure: 11-piperazin-1-yldibenzo[b,f][1,4]thiazepine was administered to 3 Sprague-Dawley rats each either intravenously or orally at doses of 10 μmol/kg or 30 μmol/kg, respectively, in a sodium citrate (pH 3) formulation. Blood samples were removed from each animal at several time points after dosing. The blood samples were centrifuged to produce plasma. Aliquots of each plasma sample were analyzed by an HPLC method with mass spectrometric detection to measure 11-piperazin-1-yldibenzo[b,f][1,4]thiazepine. The area under the plasma concentration curves (AUC) constructed from the sample measurements following iv or po administration were used to calculate oral biovailability.

c1ccc2c(c1)N=C(N1CCNCC1)c1ccccc1S2 [11-piperazin-1-yldibenzo[b,f][1,4]thiazepine]
bioavailability: 11%
